Converted amounts (≈) assume the structure as drawn.
Key:
Experiment in all cases: Broth microdilution MIC (NCCLS)
Type in all cases: cell-based
E. faecium A491 (Amp^R) = conditions: Enterococcus faecium
Method in brief: (§1)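 MIC = lowest drug concentration with no bacterial growth, read at 650 nm and visually after 24 h at 35° C. Assay run in MHB per NCCLS, inoculum 5×10^5 CFU/mL, compounds serially diluted 2-fold in plate.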

[1] = system: S. aureus ATCC 33593 (Meth^R); conditions: Staphylococcus aureus, ATCC33593
Method in brief: as §1

[2] = system: S. aureus PC1 (Meth^S)(lac^+); conditions: Staphylococcus aureus
Method in brief: as §1

E. faecium ATCC 35667 = conditions: Enterococcus faecium, ATCC35667
Method in brief: as §1

E. faecalis ATCC 29212 = conditions: Enterococcus faecalis, ATCC29212
Method in brief: as §1

[3] = system: S. aureus 76 (Meth^R)(lac^+); conditions: Staphylococcus aureus
Method in brief: as §1

[4] = system: S. haemolyticus 05 (Meth^R); conditions: Staphylococcus haemolyticus
Method in brief: as §1

P. aeruginosa ATCC 27853 = conditions: Pseudomonas aeruginosa, ATCC27853
Method in brief: as §1

[5] = system: S. aureus Spain #356 (Meth^R); conditions: Staphylococcus aureus, 24 h
Method in brief: as §1

E. faecium VanA (Van^R) = conditions: Enterococcus faecium
Method in brief: as §1

E. coli ATCC25992 = conditions: Escherichia coli
Method in brief: as §1

[6] = system: S. aureus ATCC 13709 (Meth^S); conditions: Staphylococcus aureus, ATCC13709, S. aureus ATCC 13709 (Meth^S); read-out: MIC
Method in brief: as §1

E. faecalis VanB (Van^R) = conditions: Enterococcus faecalis
Method in brief: as §1

SMILES | MIC (E. faecium A491 (Amp^R)) | MIC [1] | MIC [2] | MIC (E. faecium ATCC 35667) | MIC (E. faecalis ATCC 29212) | MIC [3] | MIC [4] | MIC (P. aeruginosa ATCC 27853) | MIC [5] | MIC (E. faecium VanA (Van^R)) | MIC (E. coli ATCC25992) | MIC [6] | MIC (E. faecalis VanB (Van^R))
NCCSCc1nc(SCCN)sc1SC1=C(C(=O)O)N2C(=O)[C@@H](NC(=O)/C(=N\O)c3nc(N)sc3Cl)[C@H]2SC1 [Cmpd 11, (7R)-7-[(Z)-2-(2-amino-5-chlorothiazol-4-yl)-2-(hydroxyimino)acetamido]-3-[4-(2-aminoethylthiomethyl)-2-aminoethylthio-1,3-thiazol-5-ylthio]-3-cephem-4-carboxylic acid] | 4 µg/mL (≈ 5.85 µM) | 0.5 µg/mL (≈ 0.732 µM) | 0.13 µg/mL (≈ 0.19 µM) | 0.5 µg/mL (≈ 0.732 µM) | 0.06 µg/mL (≈ 0.0878 µM) | 0.5 µg/mL (≈ 0.732 µM) | 0.5 µg/mL (≈ 0.732 µM) | 2 µg/mL (≈ 2.93 µM) | 0.5 µg/mL (≈ 0.732 µM) | 4 µg/mL (≈ 5.85 µM) | 2 µg/mL (≈ 2.93 µM) | 0.13 µg/mL (≈ 0.19 µM) | 0.06 µg/mL (≈ 0.0878 µM)
N=C(N)NCCSCc1ncccc1SC1=C(C(=O)O)N2C(=O)[C@@H](NC(=O)/C(=N\O)c3nsc(N)n3)[C@H]2SC1 [Cmpd 14, (7R)-7-[(Z)-2-(5-amino-1,2,4-thiadiazol-3-yl)-2-(hydroxyimino)acetamido]-3-[2-(2-guanidinoethylthiomethyl)pyrid-3-ylthio]-3-cephem-4-carboxylic acid] |  |  |  |  |  |  |  |  |  |  |  |  | 0.25 µg/mL (≈ 0.409 µM)
NCCSCc1cnccc1SC1=C(C(=O)O)N2C(=O)[C@@H](NC(=O)/C(=N\O)c3cccc(N)n3)[C@H]2SC1 [Cmpd 24, (7R)-7-[(Z)-2-(2-aminopyrid-6-yl)-2-(hydroxyimino)acetamido]-3-[3-(2-aminoethylthiomethyl)pyrid-4-ylthio]-3-cephem-4-carboxylic acid] | 32 µg/mL (≈ 57 µM) | 2 µg/mL (≈ 3.56 µM) | 0.25 µg/mL (≈ 0.445 µM) | 1 µg/mL (≈ 1.78 µM) | 0.25 µg/mL (≈ 0.445 µM) | 1 µg/mL (≈ 1.78 µM) | 2 µg/mL (≈ 3.56 µM) | > 32 µg/mL | 2 µg/mL (≈ 3.56 µM) | 2 µg/mL (≈ 3.56 µM) | 16 µg/mL (≈ 28.5 µM) | 0.25 µg/mL (≈ 0.445 µM) | 0.5 µg/mL (≈ 0.89 µM)
NCCSCc1ncsc1SC1=C(C(=O)O)N2C(=O)[C@@H](NC(=O)/C(=N\O)c3cccc(N)n3)[C@H]2SC1 [Cmpd 23, (7R)-7-[(Z)-2-(2-aminopyrid-6-yl)-2-(hydroxyimino)acetamido]-3-[4-(2-aminoethylthiomethyl)-1,3-thiazol-5-ylthio]-3-cephem-4-carboxylic acid] |  | 1 µg/mL (≈ 1.76 µM) | 0.13 µg/mL (≈ 0.229 µM) | 2 µg/mL (≈ 3.52 µM) | 0.25 µg/mL (≈ 0.44 µM) | 2 µg/mL (≈ 3.52 µM) | 4 µg/mL (≈ 7.05 µM) | > 32 µg/mL | 2 µg/mL (≈ 3.52 µM) | 2 µg/mL (≈ 3.52 µM) | 16 µg/mL (≈ 28.2 µM) | 0.06 µg/mL (≈ 0.106 µM) | 0.5 µg/mL (≈ 0.881 µM)
NCCSCc1cnccc1SC1=C(C(=O)O)N2C(=O)[C@@H](NC(=O)/C(=N\O)c3nc(N)sc3Cl)[C@H]2SC1 [Cmpd 20, (7R)-7-[(Z)-2-(2-amino-5-chlorothiazol-4-yl)-2-(hydroxyimino)acetamido]-3-[3-(2-aminoethylthiomethyl)pyrid-4-ylthio]-3-cephem-4-carboxylic acid] | 8 µg/mL (≈ 13.3 µM) | 1 µg/mL (≈ 1.66 µM) | 0.25 µg/mL (≈ 0.415 µM) | 0.5 µg/mL (≈ 0.83 µM) | 0.06 µg/mL (≈ 0.0996 µM) | 1 µg/mL (≈ 1.66 µM) | 2 µg/mL (≈ 3.32 µM) | > 32 µg/mL | 1 µg/mL (≈ 1.66 µM) | 0.25 µg/mL (≈ 0.415 µM) | 8 µg/mL (≈ 13.3 µM) | 0.13 µg/mL (≈ 0.216 µM) | 0.13 µg/mL (≈ 0.216 µM)
NCCSCc1ncccc1SC1=C(C(=O)O)N2C(=O)[C@@H](NC(=O)/C(=N\O)c3nsc(N)n3)[C@H]2SC1 [Cmpd 17, (7R)-7-[(Z)-2-(5-amino-1,2,4-thiadiazol-3-yl)-2-(hydroxyimino)acetamido]-3-[2-(2-aminoethylthiomethyl)pyrid-3-ylthio]-3-cephem-4-carboxylic acid] |  |  | 0.25 µg/mL (≈ 0.44 µM) |  |  |  |  |  |  |  |  | 0.25 µg/mL (≈ 0.44 µM) | 
N=C(N)NCCSCc1cnccc1SC1=C(C(=O)O)N2C(=O)[C@@H](NC(=O)/C(=N\O)c3nsc(N)n3)[C@H]2SC1 [Cmpd 25, (7R)-7-[(Z)-2-(5-amino-1,2,4-thiadiazol-3-yl)-2-(hydroxyimino)acetamido]-3-[3-(2-guanidinoethylthiomethyl)pyrid-4-ylthio]-3-cephem-4-carboxylic acid] | 32 µg/mL (≈ 52.4 µM) | 1 µg/mL (≈ 1.64 µM) | 0.13 µg/mL (≈ 0.213 µM) | 0.5 µg/mL (≈ 0.819 µM) | 0.13 µg/mL (≈ 0.213 µM) | 1 µg/mL (≈ 1.64 µM) | 2 µg/mL (≈ 3.27 µM) | > 32 µg/mL | 1 µg/mL (≈ 1.64 µM) | 1 µg/mL (≈ 1.64 µM) | 1 µg/mL (≈ 1.64 µM) | 0.13 µg/mL (≈ 0.213 µM) | 0.25 µg/mL (≈ 0.409 µM)
NCCSCc1cnccc1SC1=C(C(=O)O)N2C(=O)C(NC(=O)/C(=N\O)c3csc(N)n3)C2SC1 (centres unmarked) [Cmpd 19] | > 32 µg/mL | 2 µg/mL (≈ 3.52 µM) | 0.5 µg/mL (≈ 0.881 µM) | 2 µg/mL (≈ 3.52 µM) | 0.5 µg/mL (≈ 0.881 µM) | 2 µg/mL (≈ 3.52 µM) | 4 µg/mL (≈ 7.05 µM) | > 32 µg/mL | 2 µg/mL (≈ 3.52 µM) | 4 µg/mL (≈ 7.05 µM) | 4 µg/mL (≈ 7.05 µM) | 0.5 µg/mL (≈ 0.881 µM) | 1 µg/mL (≈ 1.76 µM)
NCCSCc1ncccc1SC1=C(C(=O)O)N2C(=O)[C@@H](NC(=O)/C(=N\O)c3nc(N)sc3Cl)[C@H]2SC1 [Cmpd 13, (7R)-7-[(Z)-2-(2-amino-5-chlorothiazol-4-yl)-2-(hydroxyimino)acetamido]-3-[2-(2-aminoethylthiomethyl)pyrid-3-ylthio]-3-cephem-4-carboxylic acid] |  |  | 0.25 µg/mL (≈ 0.415 µM) |  |  |  |  |  |  |  |  |  | 
NCCSCc1nc(N)sc1SC1=C(C(=O)O)N2C(=O)[C@@H](NC(=O)/C(=N\O)c3nc(N)sc3Cl)[C@H]2SC1 [Cmpd 3, (7R)-7-[(Z)-2-(2-amino-5-chlorothiazol-4-yl)-2-(hydroxyimino)acetamido]-3-[4-(2-aminoethylthiomethyl)-2-amino-1,3-thiazol-5-ylthio]-3-cephem-4-carboxylic acid] |  |  | 0.25 µg/mL (≈ 0.401 µM) | 1 µg/mL (≈ 1.6 µM) |  | 1 µg/mL (≈ 1.6 µM) | 1 µg/mL (≈ 1.6 µM) | 4 µg/mL (≈ 6.42 µM) | 1 µg/mL (≈ 1.6 µM) | 8 µg/mL (≈ 12.8 µM) |  | 0.13 µg/mL (≈ 0.209 µM) | 0.25 µg/mL (≈ 0.401 µM)
NCCSCc1ccncc1SC1=C(C(=O)O)N2C(=O)[C@@H](NC(=O)/C(=N\O)c3nc(N)sc3Cl)[C@H]2SC1 [Cmpd 21, (7R)-7-[(Z)-2-(2-amino-5-chlorothiazol-4-yl)-2-(hydroxyimino)acetamido]-3-[4-(2-aminoethylthiomethyl)pyrid-3-ylthio]-3-cephem-4-carboxylic acid] |  |  | 0.25 µg/mL (≈ 0.415 µM) |  |  |  |  |  |  |  |  |  | 
NCCSCc1cnccc1SC1=C(C(=O)O)N2C(=O)[C@@H](NC(=O)/C(=N\O)c3nsc(N)n3)[C@H]2SC1 [Cmpd 18, (7R)-7-[(Z)-2-(5-amino-1,2,4-thiadiazol-3-yl)-2-(hydroxyimino)acetamido]-3-[3-(2-aminoethylthiomethyl)pyrid-4-ylthio]-3-cephem-4-carboxylic acid] | 32 µg/mL (≈ 56.3 µM) | 1 µg/mL (≈ 1.76 µM) | 0.13 µg/mL (≈ 0.229 µM) | 0.5 µg/mL (≈ 0.879 µM) | 0.13 µg/mL (≈ 0.229 µM) | 1 µg/mL (≈ 1.76 µM) | 2 µg/mL (≈ 3.52 µM) | > 32 µg/mL | 1 µg/mL (≈ 1.76 µM) | 1 µg/mL (≈ 1.76 µM) | 0.5 µg/mL (≈ 0.879 µM) | 0.13 µg/mL (≈ 0.229 µM) | 0.25 µg/mL (≈ 0.44 µM)

Reference: patent publication US6723716B1, “7-acylamino-3-heteroarylthio-3-cephem carboxylic acid antibiotics and prodrugs thereof” (Essential Therapeutics, Inc., priority 1999, dated 2004)
